Reference: US9845321B2, “1,3-dihydro-2H-benzimidazol-2-one derivatives substituted with heterocycles as respiratory syncytial virus antiviral agents” (JANSSEN SCIENCES IRELAND UC, priority 2012, dated 2017)

Columns and labels:
in vitro = type: cell-based; details: human
Procedure: (§1) Black 96-well clear-bottom microtiter plates (Corning, Amsterdam, The Netherlands) were filled in duplicate using a customized robot system with serial 4-fold dilutions of compound in a final volume of 50 μl culture medium [RPMI medium without phenol red, 10% FBS, 0.04% gentamycin (50 mg/ml) and 0.5% DMSO]. Then, 100 μl of a HeLa cell suspension (5×10^4 cells/ml) in culture medium was added to each well followed by the addition of 50 μl rgRSV224 (MOI=0.02) virus in culture medium using a multidrop dispenser (Thermo Scientific, Erembodegem, Belgium). rgRSV224 virus is an engineered virus that includes an additional GFP gene (Hallak et al, 2000) and was in-licensed from the NIH (Bethesda, Md., USA). Medium, virus- and mock-infected controls were included in each test. Cells were incubated at 37° C. in a 5% CO2 atmosphere. Three days post-virus exposure, viral replication was quantified by measuring GFP expression in the cells by a MSM laser microscope (Tibotec, Beerse, Belgium). The EC50 was defined as the 50% inhibitory concentration for GFP expression. In parallel, compounds were incubated for three days in a set of white 96-well microtitier plates (Corning) and the cytotoxicity of compounds in HeLa cells was determined by measuring the ATP content of the cells using the ATPlite kit (PerkinElmer, Zaventem, Belgium) according to the manufacturer's instructions. The CC50 was defined as the 50% concentration for cytotoxicity.

rgRSV224 virus = experiment: Antiviral activity: rgRSV224 (GFP-expressing RSV) replication in HeLa cells, GFP expression measured three days post-virus exposure; type: cell-based; details: human respiratory syncytial virus, 72 h, read-out: WT activity pEC50 (converted)
Procedure: as §1

Compound | CC50 at 3 days (in vitro) | EC50 (rgRSV224 virus) | melting point
CC(C)CCn1c(Cn2c(=O)n(-c3nccs3)c3ccncc32)nc2nc(Cl)ccc21 [Compound P22, 3-((5-chloro-1-isopentyl-1H-imidazo[4,5-b]pyridin-2-yl)methyl)-1-(thiazol-2-yl)-1H-imidazo[4,5-c]pyridin-2(3H)-one] | 25100 nM | 3.98 nM | 231.23 °C
N#CCCCn1c(Cn2c(=O)n(-c3ccncn3)c3ccncc32)cc2cc(Cl)ccc21 [Compound P24, 4-(5-chloro-2-((2-oxo-1-(pyrimidin-4-yl)-1H-imidazo[4,5-c]pyridin-3(2H)-yl)methyl)-1H-indol-1-yl)butanenitrile] | > 50100 nM | 10 nM | 229.17 °C
CC(C)(C)OC(=O)N1CC(n2c(=O)n(Cc3cc4cc(Cl)ccc4n3CCCS(C)(=O)=O)c3cc(F)ccc32)C1 [Compound P2, tert-butyl 3-(3-((5-chloro-1-(3-(methylsulfonyl)propyl)-1H-indol-2-yl)methyl)-5-fluoro-2-oxo-2,3-dihydro-1H-benzo[d]imidazol-1-yl)azetidine-1-carboxylate] | 10000 nM | 12.6 nM | 185 °C
COc1ccc(-n2c(=O)n(Cc3cc4cc(Cl)ccc4n3CCCC#N)c3cnccc32)cc1OC [Compound P19, 4-(5-chloro-2-((1-(3,4-dimethoxyphenyl)-2-oxo-1H-imidazo[4,5-c]pyridin-3(2H)-yl)methyl)-1H-indol-1-yl)butanenitrile] | > 100000 nM | 0.126 nM | 176.51 °C
CS(=O)(=O)CCCn1c(Cn2c(=O)n(C3CN(S(C)(=O)=O)C3)c3ccncc32)cc2cc(Cl)ccc21 [Compound P5, 3-((5-chloro-1-(3-(methylsulfonyl)propyl)-1H-indol-2-yl)methyl)-1-(1-(methylsulfonyl)azetidin-3-yl)-1H-imidazo[4,5-c]pyridin-2(3H)-one] | 100000 nM | 1.58 nM | 240 °C
O=c1n(Cc2nc3nc(Cl)ccc3n2CCCCF)c2cnccc2n1-c1nccs1 |  |  | 238 °C
O=c1n(Cc2cc3cc(Cl)ccc3n2CCCCF)c2cnccc2n1-c1ccc(Cl)cc1 [Compound P34, 3-((5-chloro-1-(4-fluorobutyl)-1H-indol-2-yl)methyl)-1-(4-chlorophenyl)-1H-imidazo[4,5-c]pyridin-2(3H)-one] | > 100000 nM | 31.6 nM | 168 °C
N#CCCCn1c(Cn2c(=O)n(-c3ncco3)c3ccncc32)cc2cc(Cl)ccc21 [Compound P37, 4-(5-chloro-2-((1-(oxazol-2-yl)-2-oxo-1H-imidazo[4,5-c]pyridin-3(2H)-yl)methyl)-1H-indol-1-yl)butanenitrile] | > 100000 nM | 1.58 nM | 234 °C
Cn1ccc(-n2c(=O)n(Cc3cc4cc(Cl)ccc4n3CCCCF)c3cnccc32)n1 [Compound P38, 3-((5-chloro-1-(4-fluorobutyl)-1H-indol-2-yl)methyl)-1-(1-methyl-1H-pyrazol-3-yl)-1H-imidazo[4,5-c]pyridin-2(3H)-one] | > 100000 nM | 1.58 nM | 169.3 °C
COc1ccc(-n2c(=O)n(Cc3cc4cc(Cl)ccc4n3CCCC#N)c3cnccc32)c(C)c1 [Compound P20, 4-(5-chloro-2-((1-(4-methoxy-2-methylphenyl)-2-oxo-1H-imidazo[4,5-c]pyridin-3(2H)-yl)methyl)-1H-indol-1-yl)butanenitrile] | > 100000 nM | 0.398 nM | 172.59 °C
CC(C)CCn1c(Cn2c(=O)n(-c3nccs3)c3ccc(F)cc32)nc2nc(Cl)ccc21 [Compound P25, 3-((5-chloro-1-isopentyl-1H-imidazo[4,5-b]pyridin-2-yl)methyl)-5-fluoro-1-(thiazol-2-yl)-1H-benzo[d]imidazol-2(3H)-one] | > 50100 nM | 15.8 nM | 264.42 °C
CC(C)CCn1c(Cn2c(=O)n(-c3ccncc3F)c3ccncc32)nc2nc(Cl)ccc21 [Compound P26, 3-((5-chloro-1-isopentyl-1H-imidazo[4,5-b]pyridin-2-yl)methyl)-1-(3-fluoropyridin-4-yl)-1H-imidazo[4,5-c]pyridin-2(3H)-one] | > 100000 nM | 25.1 nM | 123.79 °C
COc1ccc(-n2c(=O)n(Cc3cc4cc(Cl)ccc4n3CCCCF)c3cnccc32)cc1 [Compound P32, 3-((5-chloro-1-(4-fluorobutyl)-1H-indol-2-yl)methyl)-1-(4-methoxy-phenyl)-1H-imidazo[4,5-c]pyridin-2(3H)-one] | 79400 nM | 3.98 nM | 163 °C
N#CCCCn1c(Cn2c(=O)n(-c3ccc(Cl)cc3)c3ccncc32)cc2cc(Cl)ccc21 [Compound P39, 4-(5-chloro-2-((1-(4-chlorophenyl)-2-oxo-1H-imidazo[4,5-c]pyridin-3(2H)-yl)methyl)-1H-indol-1-yl)butanenitrile] | 25100 nM | 3.98 nM | 210.8 °C
CC(=O)N1CC(n2c(=O)n(Cc3cc4cc(Cl)ccc4n3CCCS(C)(=O)=O)c3cnccc32)C1 [Compound P6, 1-(1-acetylazetidin-3-yl)-3-((5-chloro-1-(3-(methylsulfonyl)propyl)-1H-indol-2-yl)methyl)-1H-imidazo[4,5-c]pyridin-2(3H)-one] | > 25100 nM | 3.98 nM | 252 °C
CC(C)(C)OC(=O)N1CC(n2c(=O)n(Cc3cc4cc(Cl)ccc4n3CCCS(C)(=O)=O)c3cnccc32)C1 [Compound P1, tert-butyl-3-(3-((5-chloro-1-(3-(methylsulfonyl)propyl)-1H-indol-2-yl)methyl)-2-oxo-2,3-dihydro-1H-imidazo[4,5-c]pyridin-1-yl)azetidine-1-carboxylate] | 50100 nM | 5.01 nM | 195 °C
CC(C)(C)n1c(=O)n(Cc2cc3cc(Cl)ccc3n2CCCS(C)(=O)=O)c2cnccc21 [Compound P8, 1-tert-butyl-3-((5-chloro-1-(3-(methylsulfonyl)propyl)-1H-indol-2-yl)methyl)-1H-imidazo[4,5-c]pyridin-2(3H)-one] | 39800 nM | 2.51 nM | 226 °C
Cn1ccc(-n2c(=O)n(Cc3cc4cc(Cl)ccc4n3CCCC#N)c3cnccc32)n1 [Compound P36, 4-(5-chloro-2-((1-(1-methyl-1H-pyrazol-3-yl)-2-oxo-1H-imidazo[4,5-c]pyridin-3(2H)-yl)methyl)-1H-indol-1-yl)butanenitrile] | 63100 nM | 1.58 nM | 244 °C
N#CCCCn1c(Cn2c(=O)n(-c3nccs3)c3ccc(F)cc32)cc2cc(Cl)ccc21 [Compound P27, 4-(5-chloro-2-((6-fluoro-2-oxo-3-(thiazol-2-yl)-2,3-dihydro-1H-benzo[d]imidazol-1-yl)methyl)-1H-indol-1-yl)butanenitrile] | > 100000 nM | 31.6 nM | 238.29 °C
O=c1n(Cc2cc3cc(Cl)ccc3n2CCCCF)c2cnccc2n1-c1nccs1 [Compound P11, 3-((5-chloro-1-(4-fluorobutyl)-1H-indol-2-yl)methyl)-1-(thiazol-2-yl)-1H-imidazo[4,5-c]pyridin-2(3H)-one] | > 25100 nM | 12.6 nM | 240 °C
COC(=O)c1ccc(-n2c(=O)n(Cc3cc4cc(Cl)ccc4n3CCCC#N)c3cnccc32)cc1 [Compound P51, methyl 4-(3-((5-chloro-1-(3-cyanopropyl)-1H-indol-2-yl)methyl)-2-oxo-2,3-dihydro-1H-imidazo[4,5-c]pyridin-1-yl)benzoate] | 39800 nM | 0.794 nM | 
COc1ccc(-n2c(=O)n(Cc3cc4cc(Cl)ccc4n3CCCS(C)(=O)=O)c3cnccc32)cc1 [Compound P35, 3-((5-chloro-1-(3-(methylsulfonyl)propyl)-1H-indol-2-yl)methyl)-1-(4-methoxyphenyl)-1H-imidazo[4,5-c]pyridin-2(3H)-one] | 31600 nM | 0.316 nM | 215 °C
CS(=O)(=O)CCCn1c(Cn2c(=O)n(-c3ccc(Cl)cc3)c3ccncc32)cc2cc(Cl)ccc21 [Compound P30, 3-((5-chloro-1-(3-(methylsulfonyl)propyl)-1H-indol-2-yl)methyl)-1-(4-chlorophenyl)-1H-imidazo[4,5-c]pyridin-2(3H)-one] | > 100000 nM | 1.58 nM | 
CS(=O)(=O)CCCn1c(Cn2c(=O)n(C3CNC3)c3ccncc32)cc2cc(Cl)ccc21 [Compound P4, 1-(azetidin-3-yl)-3-((5-chloro-1-(3-(methylsulfonyl)propyl)-1H-indol-2-yl)methyl)-1H-imidazo[4,5-c]pyridin-2(3H)-one] | > 100000 nM | 31.6 nM | 
